Here are results for three compounds from US10336822B2, “Early marker of proteinuria in patients treated with an anti-VEGF treatment” (Mayo Foundation for Medical Education and Research, priority 2009, dated 2019).

The subject of data set [1] is urinary podocytes. Put plainly: Podocyturia assay: urinary cells stained for podocin immunoreactivity. It counts as in vivo, human. As to conditions: for Cells/HPF (urinary podocytes): 400 × high power field, individual cancer patients on anti-VEGF therapy, Table 1. Here is the method:
A random urine sample (25-50 mL each) was centrifuged for 8 minutes at 700 g at room temperature. The pellets were rinsed twice with […]. Next, the pellets were resuspended in Dulbecco's modified eagle's medium (DMEM) F-12 medium with 10% fetal bovine serum that was supplemented with antibiotics for the prevention of bacterial contamination. A one-milliliter aliquot was plated on a collagen-coated tissue culture slide, which was followed by overnight incubation at 37° C. in 5% CO2. The next day, the media were removed, followed by two phosphate-buffered saline solution washes. The slide was fixed with 1 mL of ice cold methanol for 10 minutes at −20° C. The slide was incubated with antibodies to podocin (dilution, 1:200). After being washed with phosphate-buffered saline solution, a secondary fluorescein isothiocyanate-labeled antibody was added at a dilution of 1:40 for 30 minutes. The sediment was counterstained with Hoechst nuclear stain to facilitate differentiation of whole cells from cell fragments. Coverslips were mounted with Vectashield (Vector Labs, Burlington, Calif.), and the slides were viewed with a fluorescence microscope (Leica, Germany). Nucleated, positive-staining cells were considered to be podocytes. A renal pathologist, who was blinded to the clinical diagnosis and laboratory findings, evaluated each sample to determine the number of cells that were present and the percentage of cells that were stained for podocin.

Data set [2] can be described thus: Proteinuria in patients on anti-VEGF therapy. It counts as in vivo, human. Here is the method:
The following was performed to determine whether podocyturia is present in patients who, while undergoing anti-VEGF therapy, develop proteinuria (Table 1). In addition, urinary podocyte excretion was compared among patients on anti-VEGF therapy with proteinuria ranging from 101 to 9720 mg/d (Table 1).

A short description of data set [3]: Renal function (creatinine, GFR) in patients on anti-VEGF therapy. As to conditions: for GFR: individual cancer patients on anti-VEGF therapy, Table 1.
The subject of data set [4] is renal cell carcinoma, clear cell type. Put plainly: Clinical course of a renal cell carcinoma patient on sunitinib therapy. It counts as in vivo, human. Particulars: person, four months into therapy. From the text:
They subsequently underwent a right radical nephrectomy and retroperitoneal lymphadenectomy.

Where “and” joins values, the source holds several entries; their conditions need not be identical. Identical values can stand only once.

With `CNC(=O)c1cc(Oc2ccc(NC(=O)Nc3ccc(Cl)c(C(F)(F)F)c3)cc2)ccn1` [S/nib, sorafenib], the “Cells/HPF (urinary podocytes)” value in data set [1] is >9 Cells/HPF and 1 Cells/HPF. Moreover, in data set [2] (individual cancer patients on anti-VEGF therapy, Table 1), the Proteinuria was 9720 mg/day and 101 mg/day. Besides, in data set [3], the GFR was 70 and 39.
Consider `CCN(CC)CCNC(=O)c1c(C)[nH]c(/C=C2\C(=O)Nc3ccc(F)cc32)c1C` [Sunitinib], for which the “Cells/HPF (urinary podocytes)” value in data set [1] was over 3 Cells/HPF. Also, the “presence of urinary podocytes” value in data set [1] (person, after seven months of therapy, FIG. 1) is on record as “presence of urinary podocytes was confirmed”. For the same compound, in data set [2] (human, in vivo), the Proteinuria worked out at 2112 mg/day, the “predicted 24 hour protein” value is on record as 931 mg and the “protein in 24 hours” value was 467 mg. In addition, the Additional side effects result in data set [4] is “hypertension, hand and foot syndrome, and drug-induced hypothyroidism”. In addition, the “kidney function, as per creatinine measurements” value in data set [3] (after the regimen was changed and the dose was decreased) is “improved”. The GFR in data set [3] came out at 43. Further, the creatinine in data set [3] (person, after seven months of therapy) is 1.3. The same compound registered a peak creatinine in data set [3] (person, four months into therapy) of 1.5.
As for bevacizumab, the “Proteinuria (dipstick)” value in data set [2] (human, in vivo) is given as 1 + dipstick.
